We go through 49 molecules from patent US8632767B2, “3-[1-(3-haloalkyl)triazolyl]phenyl sulphide derivatives as acaricides and insecticides” (Bayer Intellectual Property GmbH, priority 2009, dated 2014).

Data set [1] in a line: log P by HPLC on reversed-phase C18, LC-MS, pH 2.7, formic acid (HCOOH). It counts as physicochemical. As to conditions: reversed-phase C18 HPLC column; HPLC C18, pH 2.7, 0.1% aqueous formic acid/acetonitrile. The procedure: The log P values reported in the table above and in the preparation examples were determined in accordance with EEC Directive 79/831 Annex V.A8 by HPLC (High Performance Liquid Chromatography) on reversed-phase columns (C18), with the following methods: ^[b] The determination is made by LC-MS in the acid range at pH 2.7 with 0.1% aqueous formic acid and acetonitrile (containing 0.1% formic acid) as eluents; linear gradient from 10% acetonitrile to 95% acetonitrile. Calibration took place with unbranched alkan-2-ones (having 3 to 16 carbon atoms) of known log P values (log P values determined from the retention times by linear interpolation between two successive alkanones).

In data set [2] the test system is Boophilus microplus. Put plainly: Boophilus microplus test (BOOPMI injection). It counts as in vivo. As to conditions: Rhipicephalus microplus, 168 h; 20 μg/animal, injection into abdomen, after 7 days; read-out: activity (no fertile eggs laid). How it is done: Solvent: Dimethyl Sulphoxide An appropriate preparation of active compound is prepared by mixing 10 mg of active compound with 0.5 ml of solvent and diluting the concentrate with solvent to the desired concentration. The solution of active compound is injected into the abdomen (Boophilus microplus) and the animals are transferred into dishes and kept in a controlled atmosphere. The activity is assessed on the basis of deposition of fertile eggs. After 7 days, the effect in % is determined. Here, 100% means that none of the ticks has laid fertile eggs.

Data set [3] has as its system greenhouse red spidermite (Tetranychus urticae). Put plainly: Tetranychus test; OP resistant (TETRUR spray treatment), Example 3. It counts as in vivo. As to conditions: foliar, 144 h, spray on bean leaf discs, after 6 days, read-out: effect (mites killed). How it is done: Solvents: 78.0 parts by weight of acetone • • 1.5 parts by weight of dimethylformamide Emulsifier: 0.5 part by weight of alkylaryl polyglycol ether An appropriate preparation of active compound is prepared by mixing 1 part by weight of active compound with the stated amounts of solvent and emulsifier and diluting the concentrate with emulsifier-containing water to the desired concentration. Leaf discs of bean (Phaseolus vulgaris) infested by all stages of the greenhouse red spidermite (Tetranychus urticae) are sprayed with a preparation of active compound at the desired concentration. After 6 days, the effect in % is determined. Here, 100% means that all of the mites have been killed; 0% means that no mites have been killed.

In data set [4] the test system is larvae of the mustard beetle (Phaedon cochleariae). Description: Phaedon test (PHAECO spray treatment). To be noted: foliar, 168 h, spray on Chinese cabbage leaf discs, after 7 days, read-out: effect (beetle larvae killed). It counts as in vivo. How it is done:
Solvents: 78.0 parts by weight of acetone • • 1.5 parts by weight of dimethylformamide Emulsifier: 0.5 part by weight of alkylaryl polyglycol ether An appropriate preparation of active compound is prepared by mixing 1 part by weight of active compound with the stated amounts of solvent and emulsifier and diluting the concentrate with emulsifier-containing water to the desired concentration. Leaf discs of Chinese cabbage (Brassica pekinensis) are sprayed with a preparation of active compound at the desired concentration and, after they have dried, are populated with larvae of the mustard beetle (Phaedon cochleariae). After 7 days, the effect in % is determined. Here, 100% means that all of the beetle larvae have been killed; 0% means that no beetle larvae have been killed.

One may read the chromatographic logP as lipophilicity estimated from chromatographic retention. A high value points to a more lipophilic compound. Regarding `Cc1cc(C)c([S+]([O-])CC(F)F)cc1-n1cnc(C(F)F)n1` (stereo not shown) [I-A-3], the chromatographic logP in data set [1] turned out to be 1.9. Further, the pest or weed control at 0.02 mg in data set [2] is 100%. For the same molecule, in data set [3], the pest or weed control at 100 g/ha was 100%.
Consider `Cc1cc(F)c(-n2cnc(C(F)F)n2)cc1SCC(F)F` [I-A-6], for which the chromatographic logP in data set [1] amounted to 2.94. Also, the pest or weed control at 500 g/ha in data set [4] was 100%. In addition, the pest or weed control at 100 g/ha in data set [3] was found to be 100%.
Regarding `Cc1cc(C)c(-n2cnc(C(F)(F)C(F)(F)F)n2)cc1SCC(F)F` [I-A-7], in data set [1], the chromatographic logP stood at 4.22. In data set [2], the pest or weed control at 0.02 mg came out at 100%. In data set [3], the pest or weed control at 100 g/ha was found to be 100%.
Regarding `Cc1cc(C)c([S+]([O-])CC(F)F)cc1-n1cnc(C(F)(F)C(F)(F)F)n1` (stereo not shown) [I-A-8], in data set [1], the chromatographic logP was 2.95. Besides, in data set [2], the pest or weed control at 0.02 mg turned out to be 100%. Besides, in data set [3], the pest or weed control at 100 g/ha amounted to 100%.
`Cc1cc(C)c([S+]([O-])CC2CC2)cc1-n1cnc(C(F)(F)C(F)(F)F)n1` (stereo not shown) [I-A-11] registered a chromatographic logP in data set [1] of 3.11. Besides, the pest or weed control at 0.02 mg in data set [2] stood at 100%. In data set [3], the pest or weed control at 100 g/ha is 100%.
`Cc1cc(C)c(-n2cnc(C(F)F)n2)cc1SCC1CC1` [I-A-13] showed a chromatographic logP in data set [1] of 3.85. Besides, the pest or weed control at 100 g/ha in data set [3] was 100%.
The like results for `Cc1cc(C)c(-n2cnc(C(F)(F)C(F)(F)F)n2)cc1SCC1CC1` [I-A-14] were, in that order, 5.11 and 100%.
As for `Cc1cc(C)c([S+]([O-])CCC(F)(F)F)cc1-n1cnc(C(F)F)n1` (stereo not shown) [I-A-17], in data set [1], the chromatographic logP was determined as 2.28. The pest or weed control at 0.02 mg in data set [2] was 100%. Further, in data set [3], the pest or weed control at 100 g/ha amounted to 100%.
Take `CSc1cc(-n2cnc(C(F)F)n2)c(C)cc1C` [I-A-18]: the chromatographic logP in data set [1] was 3.01. For the same molecule, the pest or weed control at 500 g/ha in data set [3] came out at 100%.
In data set [1], `Cc1cc(C)c(-n2cnc(C(F)F)n2)cc1SCC(F)(F)C(F)F` [I-A-19] yielded a chromatographic logP of 3.37. In data set [3], the pest or weed control at 100 g/ha was found to be 100%.
On to `Cc1cc(C)c(-n2cnc(C(F)F)n2)cc1SCC#N` [I-A-20], for which the chromatographic logP in data set [1] stood at 2.47. For the same molecule, the pest or weed control at 500 g/ha in data set [3] was 100%.
The corresponding values for `Cc1cc(C)c([S+](C)[O-])cc1-n1cnc(C(F)F)n1` (stereo not shown) [I-A-21] are 1.46 and 80%.
The molecule `Cc1cc(F)c(-n2cnc(C(F)F)n2)cc1[S+](C)[O-]` (stereo not shown) [I-A-22] showed a chromatographic logP in data set [1] of 1.37. Moreover, the pest or weed control at 500 g/ha in data set [3] came to 80%.
With `Cc1cc(F)c(-n2cnc(C(F)F)n2)cc1[S+]([O-])CC(F)F` (stereo not shown) [I-A-23], the chromatographic logP in data set [1] was 1.81. The pest or weed control at 500 g/ha in data set [4] and in data set [3] was 100% throughout.
For `Cc1cc(F)c(-n2cnc(C(F)F)n2)cc1SCC#N` [I-A-24], the chromatographic logP in data set [1] amounted to 2.31. For the same molecule, in data set [3], the pest or weed control at 500 g/ha was 100%.
The like results for `Cc1cc(C)c([S+]([O-])CC#N)cc1-n1cnc(C(F)F)n1` (stereo not shown) [I-A-25] were, in that order, 1.49 and 100%.
The like results for `Cc1cc(F)c(-n2cnc(C(F)F)n2)cc1[S+]([O-])CC#N` (stereo not shown) [I-A-26] were, in that order, 1.4 and 100%.
For the molecule `Cc1cc(C)c(-n2cnc(C(F)(F)C(F)(F)F)n2)cc1SCC(F)(F)F` [I-A-28], the chromatographic logP in data set [1] is 4.49. Also, in data set [3], the pest or weed control at 100 g/ha is 100%.
For `Cc1cc(F)c(-n2cnc(C(F)F)n2)cc1[S+]([O-])CC1CC1` (stereo not shown) [I-A-29], in data set [1], the chromatographic logP came to 1.96. Also, in data set [3], the pest or weed control at 500 g/ha was determined as 100%.
Molecule `Cc1cc(C)c([S+]([O-])CC(F)(F)C(F)F)cc1-n1cnc(C(F)F)n1` (stereo not shown) [I-A-32] had a chromatographic logP in data set [1] of 2.35. The pest or weed control at 100 g/ha in data set [3] stood at 100%.
In data set [1], `Cc1cc(C)c([S+]([O-])CC2CC2)cc1-n1cnc(C(F)F)n1` (stereo not shown) [I-A-33] showed a chromatographic logP of 2.05. Further, the pest or weed control at 500 g/ha in data set [3] was found to be 100%.
As for `Cc1cc(C)c(-n2cnc(C(F)(F)C(F)(F)F)n2)cc1SCC(C)C` [I-A-34], in data set [1], the chromatographic logP was found to be 5.58. Further, the pest or weed control at 100 g/ha in data set [3] turned out to be 100%.
The corresponding values for `Cc1cc(C)c([S+]([O-])CC(F)(F)C(F)(F)F)cc1-n1cnc(C(F)F)n1` (stereo not shown) [I-A-35] are 2.72 and 100%.
Molecule `Cc1cc(C)c(-n2cnc(C(F)F)n2)cc1SCCC(F)(F)F` [I-A-36] gave a chromatographic logP in data set [1] of 3.68. For the same molecule, the pest or weed control at 0.02 mg in data set [2] is 100%. Besides, in data set [3], the pest or weed control at 100 g/ha was 100%.
Take `Cc1cc(C)c(-n2cnc(C(F)F)n2)cc1SCC(F)(F)C(F)(F)F` [I-A-37]: the chromatographic logP in data set [1] is 3.86. For the same molecule, the pest or weed control at 100 g/ha in data set [3] came to 100%.
Take `CSc1cc(-n2cnc(C(F)F)n2)c(F)cc1C` [I-A-38]: the chromatographic logP in data set [1] amounted to 2.93. Also, the pest or weed control at 500 g/ha in data set [3] was 100%.
For `Cc1cc(C)c([S+]([O-])CC(C)C)cc1-n1cnc(C(F)(F)C(F)(F)F)n1` (stereo not shown) [I-A-39], the chromatographic logP in data set [1] is 3.46. The pest or weed control at 0.02 mg in data set [2] was found to be 100%. The pest or weed control at 100 g/ha in data set [3] stood at 100%.
Consider `Cc1cc(C)c(-n2cnc(C(F)F)n2)cc1SSc1cc(-n2cnc(C(F)F)n2)c(C)cc1C` [II-A-1, 1,1′-[Disulphanediylbis(4,6-dimethylbenzene-3,1-diyl)]bis[3-(difluoromethyl)-1H-1,2,4-triazole]], for which the chromatographic logP in data set [1] was 4.45.
The same measure, in the same setting: the result for `Cc1cc(F)c(-n2cnc(C(F)F)n2)cc1SSc1cc(-n2cnc(C(F)F)n2)c(F)cc1C` [II-A-2] reads 4.33; that for `Cc1cc(Cl)c(-n2cnc(C(F)F)n2)cc1SSc1cc(-n2cnc(C(F)F)n2)c(Cl)cc1C` [II-A-3], 4.53; that for `Cc1cc(C)c(-n2cnc(C(F)(F)C(F)(F)F)n2)cc1SSc1cc(-n2cnc(C(F)(F)C(F)(F)F)n2)c(C)cc1C` [II-A-4], 6.36.
`Cc1cc(C)c(-n2cnc(C(F)(F)C(F)F)n2)cc1SSc1cc(-n2cnc(C(F)(F)C(F)F)n2)c(C)cc1C` [II-A-5]: in data set [1], the chromatographic logP amounted to 5.22.
On the same count and under the same terms, the figure for `Cc1cc(C)c(-n2cnc(C(F)(F)C(F)(F)Cl)n2)cc1SSc1cc(-n2cnc(C(F)(F)C(F)(F)Cl)n2)c(C)cc1C` [II-A-6] is 6.62; for `Cc1ccc(-n2cnc(C(F)F)n2)cc1SSc1cc(-n2cnc(C(F)F)n2)ccc1C` [II-A-7] it is 4.19; for `Cc1ccc(-n2cnc(C(F)(F)C(F)(F)Cl)n2)c(C)c1` [IV-A-1] it is 3.88.
The molecule `Cc1ccc(-n2cnc(C(F)F)n2)c(C)c1` [IV-A-2, 3-(Difluoromethyl)-1-(2,4-dimethylphenyl)-1H-1,2,4-triazole] gave a chromatographic logP in data set [1] of 2.43. Further, in data set [3], the pest or weed control at 500 g/ha worked out at 80%.
The like results for `Cc1ccc(-n2cnc(C(F)F)n2)c(F)c1` [IV-A-3] were, in that order, 2.31 and 90%.
In data set [1], `Cc1ccc(-n2cnc(C(F)F)n2)c(Cl)c1` [IV-A-4] registered a chromatographic logP of 2.46.
In data set [1], `Cc1ccc(-n2cnc(C(F)(F)C(F)(F)F)n2)c(C)c1` [IV-A-5] came in with a chromatographic logP of 3.78.
Still for that read-out and setting: the result for `Cc1ccc(-n2cnc(C(F)(F)C(F)F)n2)c(C)c1` [IV-A-6] reads 3.08; that for `Cc1ccc(-n2cnc(C(F)F)n2)cc1` [IV-A-7], 2.26.
`Cc1ccc(NNC(=O)C(F)(F)C(F)(F)Cl)c(C)c1` [V-1]: the chromatographic logP in data set [1] was 2.96. Also, the pest or weed control at 500 g/ha in data set [3] came out at 90%.
Consider `Cc1ccc(NNC(=O)C(F)(F)C(F)(F)F)c(C)c1` [V-2], for which the chromatographic logP in data set [1] was determined as 2.91.
Same read-out and setting: the result for `Cc1ccc(NNC(=O)C(F)(F)C(F)F)c(C)c1` [V-3] reads 2.46.
On the same count and under the same terms, the figure for `Cc1ccc(NNC(=O)C(F)F)cc1` [V-4] is 1.46.
Still for that read-out and setting: the result for `Cc1ccc(NNC(=O)C(F)F)c(F)c1` [V-5] reads 1.66.
In data set [1], `Cc1ccc(N/N=C(\N)C(F)F)c(Cl)c1` [X-1] gave a chromatographic logP of 2.5.
On the same count and under the same terms, the figure for `Cc1ccc(N/N=C(\N)C(F)(F)C(F)(F)F)c(C)c1` [X-2] is 3.65.
Same read-out and setting: the figure for `N/C(=N\Nc1ccc(F)cc1)C(F)F` [X-3] is 1.34.
